# Key:
# NRF2 pathway = assay: Immunoblot of NRF2 pathway in HaCaT cells under high glucose; format: cell-based, human; conditions: HaCaT in high glucose (HG); 5 μmol/L SF or 20 μmol/L CA; 48 h
# Procedure: (§1) Human immortalized keratinocytes HaCaT were obtained from the Arizona Cancer Center (see, e.g., Boukamp P, et al., J Cell Biol 106:761-771, 1988). Cells were grown in Dulbecco's modified Eagle's medium (DMEM) containing low glucose (LG, 5.5 mmol/L) and 10% fetal bovine serum (FBS) in an incubator at 37° C. with 5% CO2. For the experiments, the cells were starved in serum-free LG DMEM for 24 h, then either maintained in LG DMEM or switched to high glucose (HG, 25 mmol/L) DMEM for 2 days (see, e.g., Zheng H, et al., Diabetes 60:3055-3066, 2011; Lan C C, et al., Br J Dermatol 159:1103-1115, 2008). For the treatments, the cells were dosed with 5 μmol/L SF or 20 μmol/L CA.
# siRNA transfections. HaCaT cells were transfected with either a non-specific, control small interfering RNA (Con-siRNA, #1027281, Qiagen, Valencia, Calif.) or an NRF2-specific siRNA (#S100657937) using the HiPerfect transfection reagent (Qiagen) according to the manufacturer's instructions. Briefly, cells were maintained in LG or HG DMEM for 2 days and then transfected with either control or NRF2 siRNA for migration, proliferation, and apoptosis experiments. For the ROS detection, cells were maintained in LG DMEM and transfected with either control or NRF2 siRNA; 24 h later, the cells were switched to HG DMEM and treated as indicated.
# Cultured HaCaT cells were harvested in 1× sample buffer (50 mM Tris-HCl pH 6.8, 2% sodium dodecyl sulfate (SDS), 10% glycerol, 100 mM dithiothreitol (DTT), 0.1% bromophenol blue), boiled and sonicated. Total cell lysates were resolved by SDS-PAGE and subjected to immunoblot analyses with the indicated antibodies. For the detection of the secreted proteins TGF-β1 and MMP9, cells were incubated 24 h in serum-free media before harvesting the medium. TGF-β1 was measured using the Quantikine human TGF-β1 immunoassay kit (R&D systems; Minneapolis, Minn.) according to the manufacturer's instructions. The absorbance at 450 nm was measured using a Synergy 2 microplate reader (BioTek, Winooski, Vt.) and the amount of TGF-β1 was calculated by standard curve. MMP9 activity was evaluated by gelatin zymography as described elsewhere (see, e.g., Toth M, et al., Methods Mol Biol 878:121-135, 2012; Zhu P, et al., Exp Dermatol 21:123-129, 2012). Briefly, the supernatant was concentrated using Amicon Ultra-0.5 mL centrifugal filters (Merck Milipore, Darmstadt, Germany) (10 kDa cut off), mixed with non-reducing sample buffer and subjected to electrophoresis in 10% polyacrylamide-0.1% w/v gelatin gels. The gels were then washed in 2.5% Triton X-100 to remove SDS and incubated with developing buffer (50 mM Tris-HCl, pH 7.6, 1 μM ZnCl2 and 5 mM CaCl2) at 37° C. for 36 h. Gels were subsequently stained with 0.2% Coomassie blue and were analyzed with ImageJ.
# MMP9 = MMP9 immunoblot and gelatin zymography in HaCaT cells under high glucose; format: cell-based, human; conditions: HG HaCaT cells, 5 μmol/L SF or 20 μmol/L CA
# Procedure: as §1
# siRNA transfections. […]
# Cultured HaCaT cells were harvested in 1× sample buffer (50 mM Tris-HCl pH 6.8, 2% sodium dodecyl sulfate (SDS), 10% glycerol, 100 mM dithiothreitol (DTT), 0.1% bromophenol blue), boiled and sonicated. […] TGF-β1 was measured using the Quantikine human TGF-β1 immunoassay kit (R&D systems; Minneapolis, Minn.) according to the manufacturer's instructions. The absorbance at 450 nm was measured using a Synergy 2 microplate reader (BioTek, Winooski, Vt.) and the amount of TGF-β1 was calculated by standard curve. MMP9 activity was evaluated by gelatin zymography as described elsewhere (see, e.g., Toth M, et al., Methods Mol Biol 878:121-135, 2012; Zhu P, et al., Exp Dermatol 21:123-129, 2012). […]
SMILES,"protein levels of HO-1, AKR1C1, and NQO1 (NRF2 pathway)",protein levels of NRF2 (NRF2 pathway),expression and activity of MMP9 (MMP9)
"O=CC=Cc1ccccc1 [CA, Cinnamaldehyde]",further induced,further NRF2 induction,decreased
"C[S@@+]([O-])CCCCN=C=S [SF, L-sulforaphane]",further induced,further NRF2 induction,decreased

# Reference: US20180344680A1, “COMPOSITIONS AND METHODS FOR TREATMENT, AMELIORATION, AND PREVENTION OF DIABETES-RELATED SKIN ULCERS” (THE ARIZONA BOARD OF REGENTS ON BEHALF OF THE UNIVERSITY OF …, priority 2015, published 2018)
